Test results from patent US20230021483A1, “[…] […] METHOD AND CLASSIFICATION OF PHARMACEUTICAL COMPONENTS BY USING TRANSCRIPTOMES” (National Institutes of Biomedical Innovation, Health and …, priority 2016, published 2023).

Test system: preferentially upregulated genes in LV, SP, LN
Test: Z-score-based differential gene expression analysis (adjuvant group- or adjuvant-associated genes, 40 module mapping, TargetMine annotation)
Format: in vivo, C57BL/6 mice
Details: ID, LV
Source text: Each sample's FC value was converted into a z-score on a gene basis by using the entire data set for each organ. The Z-score of the triplicates of interest were summed for each adjuvant. For example, the three sample z-score in the LV sample following cdiGMP administration was summed on a gene-by-gene basis, after which the summed scores of >3 genes were selected as relatively preferentially expressed genes in the LV after cdiGMP administration. The following threshold was applied for selections. […] G2^LV: ALM_IP(z>1) & bCD(z>1) & ENDCN(z>1) & FCA(z>1). […] G4^LV: MALP2s(z>3). […] G2^SP: ENDCN_x2+ENDCN_x3(z>2) & ALM_IP(z>3) & bCD(z>3). […] G4^SP: ADX_ID_x2+ADX_ID_x3(z>2) & ADX_IP(z>3) & MALP2s(z>3). […] G2^LN: bCD(z>3) & FCA(z>3). […] G5^LN: K3(z>1.5) & K3SPG_x1+K3SPG_x2(z>1) & D35_x1+D35_x3(z>1). G6^LN: AddaVax(z>3).

## Poly_IC
Sample x1
  Adar 1425405_a_at (Group G1, Modules 20): 3.45
  Adar 1434268_at (Group G1, Modules 20): 2.82
  Ddx58 1436562_at (Group G1, Modules 20): 2.92
  Ddx58 1456890_at (Group G1, Modules 20): 3.02
  Eif2ak2 1422005_at (Group G1, Modules 20): 2.89
  G3bp2 1421323_a_at (Group G1, Modules 20): 2.83
  Gm9706///Isg15 1431591_s_at (Group G1, Modules 20): 3.28
  H2-T10///H2-T22///H2-T9 1449875_s_at (Group G1, Modules 20): 2.89
  Ifih1 1426276_at (Group G1, Modules 20): 3.06
  Ifit1 1450783_at (Group G1, Modules 20): 2.54
  Ifit3 1449025_at (Group G1, Modules 20): 3.24
  Irf7 1417244_a_at (Group G1, Modules 20): 3.53
  Irgm1 1418825_at (Group G1, Modules 20): 2.78
  Mndal 1426906_at (Group G1, Modules 20): 3.14
  Pml 1448757_at (Group G1, Modules 20): 3.58
  Pml 1456103_at (Group G1, Modules 20): 3.26
  Rnf213 1455500_at (Group G1, Modules 20): 2.64
  Rsad2 1436058_at (Group G1, Modules 20): 3
  Shisa5 1423986_a_at (Group G1, Modules 20): 2.5
  Shisa5 1437503_a_at (Group G1, Modules 20): 2.49
  Stat1 1450033_a_at (Group G1, Modules 20): 2.73
  Stat1 1450034_at (Group G1, Modules 20): 2.89
  Tdrd7 1426716_at (Group G1, Modules 20): 3.28
  Tor1aip2 1418115_s_at (Group G1, Modules 20): 2.38
  Tor1aip2 1418116_at (Group G1, Modules 20): 2.73
  Tor1aip2 1435526_at (Group G1, Modules 20): 2.88
  Trim12a 1437432_a_at (Group G1, Modules 20): 3.39
  Uba7 1426970_a_at (Group G1, Modules 20): 3
Sample x2
  Adar 1425405_a_at (Group G1, Modules 20): 2.75
  Adar 1434268_at (Group G1, Modules 20): 2.17
  Ddx58 1436562_at (Group G1, Modules 20): 2.82
  Ddx58 1456890_at (Group G1, Modules 20): 2.77
  Eif2ak2 1422005_at (Group G1, Modules 20): 2.87
  G3bp2 1421323_a_at (Group G1, Modules 20): 2.85
  Gm9706///Isg15 1431591_s_at (Group G1, Modules 20): 3.62
  H2-T10///H2-T22///H2-T9 1449875_s_at (Group G1, Modules 20): 3.28
  Ifih1 1426276_at (Group G1, Modules 20): 3.34
  Ifit1 1450783_at (Group G1, Modules 20): 2.35
  Ifit3 1449025_at (Group G1, Modules 20): 3.25
  Irf7 1417244_a_at (Group G1, Modules 20): 3.38
  Irgm1 1418825_at (Group G1, Modules 20): 2.84
  Mndal 1426906_at (Group G1, Modules 20): 2.4
  Pml 1448757_at (Group G1, Modules 20): 3.3
  Pml 1456103_at (Group G1, Modules 20): 2.5
  Rnf213 1455500_at (Group G1, Modules 20): 3.01
  Rsad2 1436058_at (Group G1, Modules 20): 3.3
  Shisa5 1423986_a_at (Group G1, Modules 20): 2.99
  Shisa5 1437503_a_at (Group G1, Modules 20): 2.66
  Stat1 1450033_a_at (Group G1, Modules 20): 2.67
  Stat1 1450034_at (Group G1, Modules 20): 3.04
  Tdrd7 1426716_at (Group G1, Modules 20): 3.24
  Tor1aip2 1418115_s_at (Group G1, Modules 20): 2.68
  Tor1aip2 1418116_at (Group G1, Modules 20): 2.94
  Tor1aip2 1435526_at (Group G1, Modules 20): 2.62
  Trim12a 1437432_a_at (Group G1, Modules 20): 3.59
  Uba7 1426970_a_at (Group G1, Modules 20): 3.13
Sample x3
  Adar 1425405_a_at (Group G1, Modules 20): 1.58
  Adar 1434268_at (Group G1, Modules 20): 1.28
  Ddx58 1436562_at (Group G1, Modules 20): 1.64
  Ddx58 1456890_at (Group G1, Modules 20): 1.87
  Eif2ak2 1422005_at (Group G1, Modules 20): 1.83
  G3bp2 1421323_a_at (Group G1, Modules 20): 1.31
  Gm9706///Isg15 1431591_s_at (Group G1, Modules 20): 2.13
  H2-T10///H2-T22///H2-T9 1449875_s_at (Group G1, Modules 20): 2.21
  Ifih1 1426276_at (Group G1, Modules 20): 2.12
  Ifit1 1450783_at (Group G1, Modules 20): 1.28
  Ifit3 1449025_at (Group G1, Modules 20): 1.95
  Irf7 1417244_a_at (Group G1, Modules 20): 2.38
  Irgm1 1418825_at (Group G1, Modules 20): 1.84
  Mndal 1426906_at (Group G1, Modules 20): 2.37
  Pml 1448757_at (Group G1, Modules 20): 2
  Pml 1456103_at (Group G1, Modules 20): 2.12
  Rnf213 1455500_at (Group G1, Modules 20): 1.47
  Rsad2 1436058_at (Group G1, Modules 20): 1.97
  Shisa5 1423986_a_at (Group G1, Modules 20): 1.61
  Shisa5 1437503_a_at (Group G1, Modules 20): 1.52
  Stat1 1450033_a_at (Group G1, Modules 20): 1.92
  Stat1 1450034_at (Group G1, Modules 20): 1.94
  Tdrd7 1426716_at (Group G1, Modules 20): 1.44
  Tor1aip2 1418115_s_at (Group G1, Modules 20): 1.13
  Tor1aip2 1418116_at (Group G1, Modules 20): 0.96
  Tor1aip2 1435526_at (Group G1, Modules 20): 1.58
  Trim12a 1437432_a_at (Group G1, Modules 20): 2.9
  Uba7 1426970_a_at (Group G1, Modules 20): 1.71
